Laboratory results published in PubChem BioAssay (NCI).
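Five concentrations, 48 hours, 96-well plates. TGI denotes the concentration required for complete inhibition of growth.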

How the values were obtained:
Assay in all cases: NCI anticancer screen, dose series, 48 h
EKVX NSCLC = tested on: EKVX NSCLC
HCC-2998 colon = tested on: HCC-2998 colon
SNB-75 CNS = tested on: SNB-75 CNS
SF-295 CNS = tested on: SF-295 CNS
RXF 393 renal = tested on: RXF 393 renal
IGROV1 ovarian = tested on: IGROV1 ovarian
A498 renal = tested on: A498 renal
NCI-H226 lung = tested on: NCI-H226 lung
SNB-19 CNS = tested on: SNB-19 CNS
SF-268 CNS = tested on: SF-268 CNS
OVCAR-3 ovarian = tested on: OVCAR-3 ovarian
UACC-62 melanoma = tested on: UACC-62 melanoma
LOX IMVI melanoma = tested on: LOX IMVI melanoma
MOLT-4 leukemia = tested on: MOLT-4 leukemia
DMS 273 small cell lung = tested on: DMS 273 small cell lung
UACC-257 melanoma = tested on: UACC-257 melanoma
SNB-78 CNS = tested on: SNB-78 CNS
HOP-92 NSCLC = tested on: HOP-92 NSCLC
SR leukemia = tested on: SR leukemia
OVCAR-5 ovarian = tested on: OVCAR-5 ovarian
SK-MEL-2 melanoma = tested on: SK-MEL-2 melanoma
SN12C renal = tested on: SN12C renal
LXFL 529 NSCLC = tested on: LXFL 529 NSCLC
SK-MEL-5 melanoma = tested on: SK-MEL-5 melanoma
OVCAR-4 ovarian = tested on: OVCAR-4 ovarian
RPMI-8226 leukemia = tested on: RPMI-8226 leukemia
NCI-H23 lung = tested on: NCI-H23 lung
MALME-3M melanoma = tested on: MALME-3M melanoma
UO-31 renal = tested on: UO-31 renal
SF-539 CNS = tested on: SF-539 CNS
DMS 114 small cell lung = tested on: DMS 114 small cell lung
K-562 leukemia = tested on: K-562 leukemia
CAKI-1 renal = tested on: CAKI-1 renal
ACHN renal = tested on: ACHN renal
HCT-15 colon = tested on: HCT-15 colon
786-0 renal = tested on: 786-0 renal
XF 498 CNS = tested on: XF 498 CNS
CCRF-CEM leukemia = tested on: CCRF-CEM leukemia
HT29 colon = tested on: HT29 colon
SW-620 colon = tested on: SW-620 colon
HCT-116 colon = tested on: HCT-116 colon
KM12 colon = tested on: KM12 colon
TK-10 renal = tested on: TK-10 renal
HOP-18 NSCLC = tested on: HOP-18 NSCLC
M14 melanoma = tested on: M14 melanoma
M19-MEL melanoma = tested on: M19-MEL melanoma
A549 NSCLC = tested on: A549 NSCLC
OVCAR-8 ovarian = tested on: OVCAR-8 ovarian
DLD-1 colon = tested on: DLD-1 colon
HOP-62 NSCLC = tested on: HOP-62 NSCLC
RXF-631 renal = tested on: RXF-631 renal
SK-MEL-28 melanoma = tested on: SK-MEL-28 melanoma
HL-60(TB) leukemia = tested on: HL-60(TB) leukemia
NCI-H460 lung = tested on: NCI-H460 lung
KM20L2 colon = tested on: KM20L2 colon
SK-OV-3 ovarian = tested on: SK-OV-3 ovarian
PC-3 prostate = tested on: PC-3 prostate
MCF7 breast = tested on: MCF7 breast
NCI-H522 lung = tested on: NCI-H522 lung
U251 CNS = tested on: U251 CNS
DU-145 prostate = tested on: DU-145 prostate
MDA-MB-435 = tested on: MDA-MB-435
MDA-N = tested on: MDA-N
HS 578T breast = tested on: HS 578T breast
COLO 205 colon = tested on: COLO 205 colon
BT-549 breast = tested on: BT-549 breast
MDA-MB-231 breast = tested on: MDA-MB-231 breast

CCOC(=O)NC(=O)c1cn(CCOC(=O)CCCCCCCCC(=O)OCCn2cc(C(=O)NC(=O)OCC)c(=O)[nH]c2=O)c(=O)[nH]c1=O gave a TGI (EKVX NSCLC) of over 100 µM, a TGI (HCC-2998 colon) of over 100 µM and a TGI (SNB-75 CNS) of over 100 µM. The TGI (SF-295 CNS) was over 100 µM, the TGI (RXF 393 renal) was over 100 µM and the TGI (IGROV1 ovarian) was over 100 µM. For the same compound, the TGI (A498 renal) was over 100 µM, the TGI (NCI-H226 lung) was over 100 µM and the TGI (SNB-19 CNS) was over 100 µM. It also gave a TGI (SF-268 CNS) of over 100 µM, a TGI (OVCAR-3 ovarian) of over 100 µM and a TGI (UACC-62 melanoma) of over 100 µM. The TGI (LOX IMVI melanoma) was over 100 µM, the TGI (MOLT-4 leukemia) was over 100 µM and the TGI (DMS 273 small cell lung) was over 100 µM. For the same compound, the TGI (UACC-257 melanoma) was over 100 µM, the TGI (SNB-78 CNS) was over 100 µM and the TGI (HOP-92 NSCLC) was over 100 µM. The TGI (SR leukemia) was over 100 µM, the TGI (OVCAR-5 ovarian) was over 100 µM and the TGI (SK-MEL-2 melanoma) was over 100 µM. The TGI (SN12C renal) was over 100 µM, the TGI (LXFL 529 NSCLC) was over 100 µM and the TGI (SK-MEL-5 melanoma) was over 100 µM. It also gave a TGI (OVCAR-4 ovarian) of over 100 µM, a TGI (RPMI-8226 leukemia) of over 100 µM and a TGI (NCI-H23 lung) of 56.7 µM. It also gave a TGI (MALME-3M melanoma) of over 100 µM, a TGI (UO-31 renal) of over 100 µM and a TGI (SF-539 CNS) of over 100 µM. It also gave a TGI (DMS 114 small cell lung) of over 100 µM, a TGI (K-562 leukemia) of over 100 µM and a TGI (CAKI-1 renal) of over 100 µM. The TGI (ACHN renal) was over 100 µM, the TGI (HCT-15 colon) was over 100 µM and the TGI (786-0 renal) was over 100 µM. The TGI (XF 498 CNS) was over 100 µM, the TGI (CCRF-CEM leukemia) was over 100 µM and the TGI (HT29 colon) was over 100 µM. For the same compound, the TGI (SW-620 colon) was over 100 µM, the TGI (HCT-116 colon) was over 100 µM and the TGI (KM12 colon) was over 100 µM. For the same compound, the TGI (TK-10 renal) was over 100 µM, the TGI (HOP-18 NSCLC) was over 100 µM and the TGI (M14 melanoma) was over 100 µM. For the same compound, the TGI (M19-MEL melanoma) was over 100 µM, the TGI (A549 NSCLC) was over 100 µM and the TGI (OVCAR-8 ovarian) was over 100 µM. It also gave a TGI (DLD-1 colon) of over 100 µM, a TGI (HOP-62 NSCLC) of over 100 µM and a TGI (RXF-631 renal) of over 100 µM. For the same compound, the TGI (SK-MEL-28 melanoma) was over 100 µM, the TGI (HL-60(TB) leukemia) was over 100 µM and the TGI (NCI-H460 lung) was over 100 µM. The TGI (KM20L2 colon) was over 100 µM.
With Cc1cccc(C)c1NC(=O)C(C#N)C1=C(Cl)C(=O)c2ccccc2C1=O (configuration not stated) the TGI (EKVX NSCLC) was 38.5 µM, the TGI (HCC-2998 colon) was 32.2 µM and the TGI (SNB-75 CNS) was 29.2 µM. For the same compound, the TGI (SF-295 CNS) was 32.5 µM, the TGI (RXF 393 renal) was over 47.8 µM and the TGI (IGROV1 ovarian) was 31.8 µM. The TGI (SK-OV-3 ovarian) was 43.3 µM, the TGI (A498 renal) was 29.3 µM and the TGI (NCI-H226 lung) was 17.4 µM. For the same compound, the TGI (PC-3 prostate) was 28.9 µM, the TGI (MCF7 breast) was 46.2 µM and the TGI (SNB-19 CNS) was 32.4 µM. It also gave a TGI (SF-268 CNS) of 31.6 µM, a TGI (OVCAR-3 ovarian) of 26.9 µM and a TGI (UACC-62 melanoma) of 33.4 µM. It also gave a TGI (LOX IMVI melanoma) of 43.8 µM, a TGI (MOLT-4 leukemia) of 26.9 µM and a TGI (NCI-H522 lung) of 26.2 µM. For the same compound, the TGI (DMS 273 small cell lung) was over 100 µM, the TGI (UACC-257 melanoma) was 21.6 µM and the TGI (U251 CNS) was 42.7 µM. It also gave a TGI (SNB-78 CNS) of 56.1 µM, a TGI (HOP-92 NSCLC) of 22.4 µM and a TGI (SR leukemia) of over 45.8 µM. It also gave a TGI (OVCAR-5 ovarian) of 37.4 µM, a TGI (SK-MEL-2 melanoma) of 29.2 µM and a TGI (DU-145 prostate) of 28.1 µM. For the same compound, the TGI (SN12C renal) was 32 µM, the TGI (LXFL 529 NSCLC) was 30 µM and the TGI (SK-MEL-5 melanoma) was 26.7 µM. It also gave a TGI (OVCAR-4 ovarian) of 30.3 µM, a TGI (RPMI-8226 leukemia) of 53.6 µM and a TGI (NCI-H23 lung) of 44 µM. For the same compound, the TGI (MALME-3M melanoma) was 30.4 µM, the TGI (MDA-MB-435) was 34.3 µM and the TGI (UO-31 renal) was 26.6 µM. The TGI (SF-539 CNS) was 48.1 µM, the TGI (DMS 114 small cell lung) was 41.8 µM and the TGI (MDA-N) was 28.6 µM. The TGI (K-562 leukemia) was over 36.4 µM, the TGI (CAKI-1 renal) was 38.1 µM and the TGI (ACHN renal) was 28.8 µM. For the same compound, the TGI (HS 578T breast) was 52.1 µM, the TGI (HCT-15 colon) was 36 µM and the TGI (786-0 renal) was 45.7 µM. The TGI (XF 498 CNS) was 28.9 µM, the TGI (CCRF-CEM leukemia) was 35.1 µM and the TGI (HT29 colon) was 39.8 µM. The TGI (SW-620 colon) was 34.3 µM, the TGI (HCT-116 colon) was 30.6 µM and the TGI (KM12 colon) was 34.5 µM. The TGI (COLO 205 colon) was 10.2 µM, the TGI (TK-10 renal) was 33.7 µM and the TGI (HOP-18 NSCLC) was 25.3 µM. It also gave a TGI (M14 melanoma) of 21.4 µM, a TGI (M19-MEL melanoma) of 16.6 µM and a TGI (A549 NSCLC) of 41.6 µM. It also gave a TGI (OVCAR-8 ovarian) of 48.5 µM, a TGI (DLD-1 colon) of 30.1 µM and a TGI (BT-549 breast) of 28.2 µM. It also gave a TGI (HOP-62 NSCLC) of 32.9 µM, a TGI (RXF-631 renal) of 43 µM and a TGI (MDA-MB-231 breast) of 49.7 µM. The TGI (SK-MEL-28 melanoma) was 38.1 µM, the TGI (HL-60(TB) leukemia) was 38.2 µM and the TGI (NCI-H460 lung) was 55.4 µM. The TGI (KM20L2 colon) was 50.7 µM.
